From PubChem BioAssay AID180 (DTP/NCI, 2004)
“And” between values parts separate entries of the source, which are not always exact repeats. Identical values can stand only once.

Test system: BDF1 mice, Adenocarcinoma 755 s.c., tumor weight T/C
Test: NCI In Vivo Anticancer Drug Screen. Data for tumor model Adenocarcinoma 755 (subcutaneous) in B6D2F1 (BDF1) mice
Settings: endpoint: mean tumor weight, higher = larger tumour
In short: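 Readout: T/C, i.e. treated-group measurement over vehicle-control measurement. Endpoint is survival or tumor size in tumor-bearing mice given compound.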

[1] = dose: 25.0 mg/kg/injection, schedule: Q01DX011 (ip), vehicle: methylcellulose (MC)
[2] = dose: 50.0 mg/kg/injection, schedule: Q01DX011 (ip), vehicle: methylcellulose (MC)
[3] = dose: 50.0 mg/kg/injection, schedule: Q01DX011 (ip), vehicle: saline
[4] = dose: 100.0 mg/kg/injection, schedule: Q01DX011 (ip), vehicle: saline
[5] = dose: 125.0 mg/kg/injection, schedule: Q01DX011 (ip), vehicle: methylcellulose (MC)
[6] = dose: 25.0 mg/kg/injection, schedule: Q01DX011 (ip), vehicle: carboxymethylcellulose (CMC)
[7] = dose: 50.0 mg/kg/injection, schedule: Q01DX011 (ip), vehicle: carboxymethylcellulose (CMC)
[8] = dose: 31.0 mg/kg/injection, schedule: Q01DX011 (ip), vehicle: methylcellulose (MC)
[9] = dose: 62.0 mg/kg/injection, schedule: Q01DX011 (ip), vehicle: methylcellulose (MC)
[10] = dose: 6.25 mg/kg/injection, schedule: Q01DX011 (ip), vehicle: methylcellulose (MC)
[11] = dose: 6.0 mg/kg/injection, schedule: Q01DX011 (ip), vehicle: carboxymethylcellulose (CMC)
[12] = dose: 12.0 mg/kg/injection, schedule: Q01DX011 (ip), vehicle: carboxymethylcellulose (CMC)
[13] = dose: 15.0 mg/kg/injection, schedule: Q01DX011 (ip), vehicle: methylcellulose (MC)

Compound: Cc1ncc(CO)c(C)c1O
- T/C (dose: 12.5 mg/kg/injection, schedule: Q01DX011 (ip), vehicle: saline): 48 % of control
- T/C (dose: 22.78 mg/kg/injection, schedule: Q01DX011 (ip), vehicle: carboxymethylcellulose (CMC)): 81 % of control
- T/C [1]: 98 % of control
- T/C (dose: 25.0 mg/kg/injection, schedule: Q01DX011 (ip), vehicle: saline): 45 % of control
- T/C (dose: 45.57 mg/kg/injection, schedule: Q01DX011 (ip), vehicle: carboxymethylcellulose (CMC)): 70 % of control
- T/C [2]: 75 % of control
- T/C [3]: 54 % of control
- T/C (dose: 59.07 mg/kg/injection, schedule: Q01DX011 (ip), vehicle: carboxymethylcellulose (CMC)): 107 % of control
- T/C (dose: 75.0 mg/kg/injection, schedule: Q01DX011 (ip), vehicle: saline): 50 % of control
- T/C (dose: 91.15 mg/kg/injection, schedule: Q01DX011 (ip), vehicle: carboxymethylcellulose (CMC)): 76 % of control
- T/C (dose: 100.0 mg/kg/injection, schedule: Q01DX011 (ip), vehicle: methylcellulose (MC)): 71 % of control
- T/C [4]: 22 % of control
- T/C (dose: 118.15 mg/kg/injection, schedule: Q01DX011 (ip), vehicle: carboxymethylcellulose (CMC)): 108 % of control
- T/C [5]: 48 % of control
- T/C (dose: 150.0 mg/kg/injection, schedule: Q01DX011 (ip), vehicle: saline): 30 % of control
- T/C (dose: 182.3 mg/kg/injection, schedule: Q01DX011 (ip), vehicle: carboxymethylcellulose (CMC)): 72 % of control
- T/C (dose: 200.0 mg/kg/injection, schedule: Q01DX011 (ip), vehicle: methylcellulose (MC)): 70 % of control
- T/C (dose: 236.3 mg/kg/injection, schedule: Q01DX011 (ip), vehicle: carboxymethylcellulose (CMC)): 55 % of control

Compound: CCCCN(C)N=Nc1ccc(C(=O)OCC)cc1
- T/C (dose: 125.0 mg/kg/injection, schedule: Q01DX011 (ip), vehicle: other): 37 % of control
- T/C (dose: 200.0 mg/kg/injection, schedule: Q01DX011 (ip), vehicle: other): 31 % of control

Compound: COC(C(=O)C(O)C(C)O)C1Cc2cc3cc(OC4CC(OC(C)=O)C(OC5CC(O)C(OC)C(C)O5)C(C)O4)cc(O)c3c(O)c2C(=O)C1OC1CC(OC2CC(OC3CC(C)(O)C(OC(=O)C(C)C)C(C)O3)C(O)C(C)O2)C(O)C(C)O1 (stereo not drawn)
- T/C (dose: 0.02 mg/kg/injection, schedule: Q01DX011 (ip), vehicle: carboxymethylcellulose (CMC)): 93 % of control
- T/C (dose: 0.04 mg/kg/injection, schedule: Q01DX011 (ip), vehicle: carboxymethylcellulose (CMC)): 93 % of control
- T/C (dose: 0.08 mg/kg/injection, schedule: Q01DX011 (ip), vehicle: carboxymethylcellulose (CMC)): 52 % of control
- T/C (dose: 0.15 mg/kg/injection, schedule: Q01DX011 (ip), vehicle: saline): 114 % of control
- T/C (dose: 0.16 mg/kg/injection, schedule: Q01DX011 (ip), vehicle: carboxymethylcellulose (CMC)): 14 % of control and 39 % of control
- T/C (dose: 0.33 mg/kg/injection, schedule: Q01DX011 (ip), vehicle: saline): 66 % of control
- T/C (dose: 0.66 mg/kg/injection, schedule: Q01DX011 (ip), vehicle: saline): 54 % of control
- T/C (dose: 1.25 mg/kg/injection, schedule: Q01DX011 (ip), vehicle: saline): 8 % of control and 11 % of control
- T/C (dose: 2.5 mg/kg/injection, schedule: Q01DX011 (ip), vehicle: saline): 2 % of control and 3 % of control

Compound: Nc1ncnc2c1ncn2C1CCCC(CO)O1 (stereo not drawn)
- T/C [3]: 196 % of control
- T/C [4]: 115 % of control
- T/C (dose: 200.0 mg/kg/injection, schedule: Q01DX011 (ip), vehicle: saline): 93 % of control

Compound: COS(C)(=O)=O
- T/C [6]: 113 % of control
- T/C [7]: 88 % of control

Compound: CCCCNc1cc(=O)[nH]c(N)n1
- T/C (dose: 55.0 mg/kg/injection, schedule: Q01DX011 (ip), vehicle: methylcellulose (MC)): 53 % of control

Compound: Cc1cnc(SCc2ccccc2Cl)nc1SCc1ccccc1Cl
- T/C [8]: 81 % of control
- T/C [9]: 65 % of control

Compound: CCCn1cnc2c(SC(C)C)nc(N)nc21
- T/C (dose: 3.1 mg/kg/injection, schedule: Q01DX011 (ip), vehicle: methylcellulose (MC)): 16 % of control
- T/C [10]: 2 % of control

Compound: CCOP(=O)(O)OCC1OC(n2cnc3c(=S)nc[nH]c32)C(O)C1O (stereo not drawn)
- T/C (dose: 3.0 mg/kg/injection, schedule: Q01DX011 (ip), vehicle: carboxymethylcellulose (CMC)): 12 % of control
- T/C [11]: 2 % of control
- T/C [12]: 4 % of control

Compound: CC(Cl)CN(Cc1cc(O)c(CN(CC(C)Cl)CC(C)Cl)cc1O)CC(C)Cl (stereo not drawn)
- T/C [5]: 58 % of control

Compound: S=c1nc[nH]c2c1ncn2C1CCCO1 (stereo not drawn)
- T/C (dose: 0.5 mg/kg/injection, schedule: Q01DX011 (ip), vehicle: carboxymethylcellulose (CMC)): 26 % of control
- T/C (dose: 1.0 mg/kg/injection, schedule: Q01DX011 (ip), vehicle: carboxymethylcellulose (CMC)): 75 % of control
- T/C (dose: 1.5 mg/kg/injection, schedule: Q01DX011 (ip), vehicle: carboxymethylcellulose (CMC)): 47 % of control
- T/C [11]: 11 % of control
- T/C [12]: 6 % of control
- T/C [6]: 4 % of control
- T/C [7]: 6 % of control
- T/C (dose: 100.0 mg/kg/injection, schedule: Q01DX011 (ip), vehicle: carboxymethylcellulose (CMC)): 6 % of control

Compound: CN(C)S(=O)(=O)c1ncnc2nc[nH]c12
- T/C (dose: 32.0 mg/kg/injection, schedule: Q01DX011 (ip), vehicle: other): 26 % of control
- T/C (dose: 128.0 mg/kg/injection, schedule: Q01DX011 (ip), vehicle: other): 7 % of control
- T/C (dose: 256.0 mg/kg/injection, schedule: Q01DX011 (ip), vehicle: other): 6 % of control

Compound: CCCCNc1nc(SCc2ccc(Cl)cc2Cl)ncc1C
- T/C [13]: 78 % of control
- T/C [8]: 91 % of control
- T/C [9]: 84 % of control
- T/C [5]: 72 % of control
- T/C (dose: 250.0 mg/kg/injection, schedule: Q01DX011 (ip), vehicle: methylcellulose (MC)): 60 % of control

Compound: Cc1cn(C2OC(CO)C(O)C2O)c(=O)[nH]c1=O (stereo not drawn)
- T/C (dose: 62.0 mg/kg/injection, schedule: Q01DX011 (ip), vehicle: saline): 86 % of control
- T/C (dose: 125.0 mg/kg/injection, schedule: Q01DX011 (ip), vehicle: saline): 78 % of control
- T/C (dose: 500.0 mg/kg/injection, schedule: Q01DX011 (ip), vehicle: saline): 121 % of control

Compound: COC(=O)C1=COC(C)C2CN3CCc4c([nH]c5cc(OC)ccc45)C3CC12 (stereo not drawn)
- T/C (dose: 22.0 mg/kg/injection, schedule: Q01DX011 (ip), vehicle: other): 116 % of control
- T/C (dose: 44.0 mg/kg/injection, schedule: Q01DX011 (ip), vehicle: other): 98 % of control
- T/C (dose: 87.5 mg/kg/injection, schedule: Q01DX011 (ip), vehicle: other): 80 % of control

Compound: CNc1ncnc2c1cnn2C1CCCO1 (stereo not drawn)
- T/C (dose: 2.3 mg/kg/injection, schedule: Q01DX011 (ip), vehicle: methylcellulose (MC)): 71 % of control
- T/C (dose: 4.6 mg/kg/injection, schedule: Q01DX011 (ip), vehicle: methylcellulose (MC)): 33 % of control
- T/C (dose: 9.3 mg/kg/injection, schedule: Q01DX011 (ip), vehicle: methylcellulose (MC)): 14 % of control

Compound: CN(C)c1ncnc2c1ncn2C1CCCCO1 (stereo not drawn)
- T/C (dose: 11.0 mg/kg/injection, schedule: Q01DX011 (ip), vehicle: methylcellulose (MC)): 70 % of control
- T/C (dose: 22.5 mg/kg/injection, schedule: Q01DX011 (ip), vehicle: methylcellulose (MC)): 47 % of control
- T/C (dose: 45.0 mg/kg/injection, schedule: Q01DX011 (ip), vehicle: methylcellulose (MC)): 47 % of control
- T/C (dose: 90.0 mg/kg/injection, schedule: Q01DX011 (ip), vehicle: methylcellulose (MC)): 20 % of control

Compound: CCCSc1nc(N)nc2c1ncn2CC(C)C
- T/C [10]: 31 % of control
- T/C (dose: 12.5 mg/kg/injection, schedule: Q01DX011 (ip), vehicle: methylcellulose (MC)): 25 % of control
- T/C [1]: 4 % of control
- T/C [2]: 1 % of control

Compound: Nc1ncnc2c1ncn2C(C=O)OC(C=O)CO (stereo not drawn)
- T/C (dose: 15.0 mg/kg/injection, schedule: Q01DX011 (ip), vehicle: carboxymethylcellulose (CMC)): 93 % of control

Compound: Nc1nc(SCc2ccc(Cl)cc2)c2ncn(C3OC(CO)C(O)C3O)c2n1 (stereo not drawn)
- T/C (dose: 37.5 mg/kg/injection, schedule: Q01DX011 (ip), vehicle: methylcellulose (MC)): 6 % of control
- T/C (dose: 75.0 mg/kg/injection, schedule: Q01DX011 (ip), vehicle: methylcellulose (MC)): 1 % of control

Compound: CSc1ncc(Br)c(=S)[nH]1
- T/C [13]: 74 % of control
- T/C [8]: 70 % of control

Compound: CC(=O)O[C@]1(C(C)=O)CC[C@H]2[C@@H]3C[C@H](C)C4=CC(=O)CC[C@]4(C)[C@H]3CC[C@@]21C
- T/C (dose: 100.0 mg/kg/injection, schedule: Q01DX011 (sc), vehicle: steriod suspending solution): 89 % of control
- T/C (dose: 300.0 mg/kg/injection, schedule: Q01DX011 (sc), vehicle: steriod suspending solution): 78 % of control
